Key:
Format in all cases: in vivo
[1] = test system: Alopecurus myosuroides (ALOMY); assay: Pre-emergence herbicidal activity, glasshouse pot test; details: Alopecurus myosuroides, 312 h; Rate 250 g/ha; pre-emergence spray; evaluated after 13 days; read-out: Pre-emergence activity ALOMY (100=total damage to plant; 0=no damage to plant)
Method in brief: (§1)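 After sowing in standard soil, pots were cultivated for one day (pre-emergence) or eight days (post-emergence), then sprayed. Plants were watered twice daily in the glasshouse, and damage was rated 13 days after treatment, 0 being none and 100 total.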

Avena fatua (AVEFA) [2] = assay: as above; details: Avena fatua, 312 h; Rate 250 g/ha; pre-emergence spray; evaluated after 13 days; read-out: Pre-emergence activity AVEFA (100=total damage to plant; 0=no damage to plant)
Method in brief: as §1

[3] = test system: Echinochloa crus-galli (ECHCG); assay: as above; details: Echinochloa crus-galli, 312 h; Rate 250 g/ha; pre-emergence spray; evaluated after 13 days; read-out: Pre-emergence activity ECHCG (100=total damage to plant; 0=no damage to plant)
Method in brief: as §1

Lolium perenne (LOLPE) [4] = assay: as above; details: Lolium perenne, 312 h; Rate 250 g/ha; pre-emergence spray; evaluated after 13 days; read-out: Pre-emergence activity LOLPE (100=total damage to plant; 0=no damage to plant)
Method in brief: as §1

[5] = test system: Alopecurus myosuroides (ALOMY); assay: Post-emergence herbicidal activity, glasshouse pot test; details: Alopecurus myosuroides, 312 h, rate 250 g/ha, evaluated after 13 days, glasshouse, read-out: Post-emergence activity ALOMY (100=total damage to plant; 0=no damage to plant)
Method in brief: as §1

Avena fatua (AVEFA) [6] = assay: as above; details: Avena fatua, 312 h, rate 250 g/ha, evaluated after 13 days, glasshouse, read-out: Post-emergence activity AVEFA (100=total damage to plant; 0=no damage to plant)
Method in brief: as §1

[7] = test system: Echinochloa crus-galli (ECHCG); assay: as above; details: Echinochloa crus-galli, 312 h, rate 250 g/ha, evaluated after 13 days, glasshouse, read-out: Post-emergence activity ECHCG (100=total damage to plant; 0=no damage to plant)
Method in brief: as §1

Lolium perenne (LOLPE) [8] = assay: as above; details: Lolium perenne, 312 h, rate 250 g/ha, evaluated after 13 days, glasshouse, read-out: Post-emergence activity LOLPE (100=total damage to plant; 0=no damage to plant)
Method in brief: as §1

SMILES | pest or weed control at 250 g/ha [1] [%] | pest or weed control at 250 g/ha (Avena fatua (AVEFA) [2]) [%] | pest or weed control at 250 g/ha [3] [%] | pest or weed control at 250 g/ha (Lolium perenne (LOLPE) [4]) [%] | pest or weed control at 250 g/ha [5] [%] | pest or weed control at 250 g/ha (Avena fatua (AVEFA) [6]) [%] | pest or weed control at 250 g/ha [7] [%] | pest or weed control at 250 g/ha (Lolium perenne (LOLPE) [8]) [%]
CCc1ccc(Oc2ccc(C(F)(F)F)cc2Br)cc1C1=C(O)C(C)(C)OC(C)(C)C1=O [Example A-78] | 100 | 80 | 100 | 100 | 100 | 90 | 90 | 90
CCc1ccc(Oc2ccc(C#N)cc2)cc1C1=C(O)C(C)(C)OC(C)(C)C1=O [Example A-79] | 80 | 80 | 100 | 90 | 100 | 60 | 100 | 80
CCc1ccc(Oc2nc(C)c(Cl)c(N)n2)cc1C1=C(O)C(C)(C)OC(C)(C)C1=O [Example A-81] | 30 | 10 | 90 | 40 | 50 | 50 | 70 | 30
CCc1ccc(Oc2cnc3cc(Cl)ccc3n2)cc1C1=C(O)CC(C)(C)CC1=O [Example A-82] | 70 | 90 | 100 | 100 | 100 | 100 | 100 | 90
CCc1ccc(Oc2ccc(C(F)(F)F)cn2)cc1C1=C(O)CC(C)(C)CC1=O [Example A-83] | 70 | 90 | 100 | 90 | 90 | 100 | 100 | 60
CCc1ccc(Oc2ncc(Cl)cc2Cl)cc1C1=C(O)CC(C)(C)CC1=O [Example A-84] | 70 | 60 | 100 | 100 | 100 | 50 | 100 | 90
CCc1ccc(Oc2ncc(Cl)cc2F)cc1C1=C(O)CC(C)(C)CC1=O [Example A-85] | 100 | 100 | 100 | 100 | 100 | 90 | 100 | 90
CCc1ccc(Oc2ncc(C(F)(F)F)cc2Cl)cc1C1=C(O)CC(C)(C)CC1=O [Example A-86] | 90 | 100 | 100 | 100 | 90 | 100 | 100 | 70
CCc1ccc(Oc2ccc(C#N)cc2F)cc1C1=C(O)CC(C)(C)CC1=O [Example A-87] | 30 | 20 | 60 | 40 | 70 | 40 | 80 | 40
CCc1ccc(Oc2ccc(C(F)(F)F)cc2)cc1C1=C(O)C(C)(C)OC(C)(C)C1=O [Example A-97] | 80 | 90 | 100 | 100 | 100 | 90 | 100 | 90
CCc1ccc(Oc2cc(Cl)ncn2)cc1C1=C(O)C(C)(C)OC(C)(C)C1=O [Example A-98] | 40 | 20 | 80 | 60 | 70 | 60 | 100 | 30
CCc1ccc(Oc2ccc(C(F)(F)F)cc2Cl)cc1C1=C(O)C(C)(C)OC(C)(C)C1=O [Example A-99] | 60 | 30 | 100 | 100 | 80 | 90 | 100 | 80
CCc1ccc(Oc2ccc(C(F)(F)F)cc2C#N)cc1C1=C(O)C(C)(C)OC(C)(C)C1=O [Example A-100] | 40 | 40 | 100 | 80 | 80 | 80 | 90 | 40
CCc1ccc(Oc2ccc(C(F)(F)F)c(Cl)c2)cc1C1=C(O)C(C)(C)OC(C)(C)C1=O [Example A-101] | 60 | 80 | 90 | 90 | 100 | 90 | 100 | 100
CCc1ccc(Oc2cncc(Cl)n2)cc1C1=C(O)C(C)(C)OC(C)(C)C1=O [Example A-102] | 0 | 0 | 10 | 20 | 10 | 0 | 40 | 20
CCc1ccc(Oc2nccnc2Cl)cc1C1=C(O)C(C)(C)OC(C)(C)C1=O [Example A-103] | 10 | 0 | 30 | 40 | 10 | 0 | 40 | 20
CCc1ccc(Oc2cnc3ccc(Br)cc3n2)cc1C1=C(O)C(C)(C)OC(C)(C)C1=O [Example A-104] | 90 | 30 | 100 | 100 | 90 | 80 | 100 | 90
CCc1ccc(Oc2nc3ccccc3s2)cc1C1=C(O)C(C)(C)OC(C)(C)C1=O [Example A-105] | 70 | 10 | 100 | 100 | 90 | 10 | 90 | 90
CCc1ccc(Oc2nc3ccc(Cl)cc3s2)cc1C1=C(O)C(C)(C)OC(C)(C)C1=O [Example A-106] | 60 | 20 | 90 | 100 | 90 | 50 | 90 | 80
CCc1ccc(Oc2ncc(Cl)cn2)cc1C1=C(O)C(C)(C)OC(C)(C)C1=O [Example A-107] | 90 | 80 | 100 | 100 | 80 | 80 | 100 | 40
CCc1ccc(Oc2nccc(C(F)(F)F)n2)cc1C1=C(O)C(C)(C)OC(C)(C)C1=O [Example A-108] | 40 | 40 | 80 | 70 | 60 | 70 | 100 | 50

Reference: patent US8865623B2, “Herbicidally active cyclic diones and derivatives thereof, processes for their preparation, compositions, and method of controlling weeds” (Syngenta Limited, priority 2009, dated 2014)
